Measured values reported in patent EP0482594A1, “Tylosin derivative and method for preparing the same” (MERCIAN CORPORATION, priority 1990, dated 1992).
Values after ≈ are worked out from the molar mass of the structure shown. Read-outs that look alike come from different tables or passages of the source.

Key:
ML-resistant strain = assay: Antibacterial activity, agar-dilution method (Mueller Hinton agar); assay type: cell-based, Staphylococcus aureus; conditions: macrolide resistant strain; for MIC: Staphylococcus aureus, read-out: minimum inhibitory concentrations (MICs)
Procedure: (§1) Antibacterial activity of the tylosin derivative of the present invention was determined by the agar- dilution method using a Mueller Hinton agar medium (Difco). The results obtained are summarized in Table 1 in which minimum inhibitory concentrations (MICs, ug/ml) are shown. Hereinafter in the specification, Compound A (the compound described in Example 3) is defined as being 4"-O-[(S)-(+)-p-methoxymandeloyl]tylosin represented by the following formula: [drawing 3] wherein R is the same as that defined above; Compound B (the compound described in Example 2) is defined as being 4"-O-[(R)-(-)-p-methoxymandeloyl]tylosin represented by the following formula: [drawing 4] wherein R is the same as that defined above; XV represents 4"-O-[p-methoxyphenylacetyl]tylosin; RKM represents rokitamycin; and EM represents erythromycin.

[1] = system: Bacillus subtilis ATCC 6633; assay: as above; assay type: cell-based
Procedure: as §1

Escherichia coli K12 = assay: as above; assay type: cell-based; conditions: for MIC: read-out: minimum inhibitory concentrations (MICs)
Procedure: as §1

[2] = system: Staphylococcus aureus 209P; assay: as above; assay type: cell-based; conditions: for MIC: read-out: minimum inhibitory concentrations (MICs)
Procedure: as §1

[3] = system: Staphylococcus aureus Smith; assay: as above; assay type: cell-based; conditions: for MIC: read-out: minimum inhibitory concentrations (MICs)
Procedure: as §1

[4] = system: Staphylococcus epidermidis ATCC 12228; assay: as above; assay type: cell-based; conditions: for minimum inhibitory concentrations (MICs): Staphylococcus epidermidis ATCC 12228; for MIC: Staphylococcus epidermidis
Procedure: as §1

[5] = Stability test using mouse liver homogenate; assay type: in vitro ADME, ICR mouse; conditions: for Remaining unhydrolyzed substance (%): after being treated with liver homogenate for 60 minutes at 37 C
Procedure: A liver in collected from an ICR mouse was homogenized by a Potter homogenizer in five times volume of 0.1 M phosphate buffer solution (pH 7.2), and supernatant was obtained by centrifuging the homogenate at 3000 rpm for 10 minutes. To 2 ml of the supernatant obtained above, 2 ml of sample solution containing 500 µg/ml of test compound in 20% aqueous methanol and 1 ml of 0.1 M phosphate buffer solution were added, and the mixture was incubated at 37 ^0 c for 60 minutes and then 1 ml of the mixture was heated at 85 ° C for 3 minutes. The reaction mixture was adjusted to pH 9.0 by adding 1 N NaOH and extracted with 1 ml of ethyl acetate.

[6] = system: Mouse leukemia L1210 cells; assay: Inhibitory activity on the growth of L1210 cells; assay type: cell-based; conditions: for IC50: L1210 cell growth
Procedure: Mouse leukemia L1210 cells were cultured in RPM11640 medium (Gifco) containing 10% horse serum (Gifco) at 37°C under 5% carbon dioxide gas so that the leukemia cells were contained in the amount of 5 x 10^4 cells/ml, and the cells were subjected to passage culture every two or three days to maintain the cell density of 5 x 10^4 cells/ml. The diluted sample solution (0.1 ml) was added to each well of a 24-well plate which contained 0.9 ml of the cultured L1210 cells, and the mixture was incubated at 37 ° C for 48 hours under 5% carbon dioxide gas. The sample solution mentioned above was prepared by dissolving a weighed test compound in dimethyl sulfoxide (DMSO) at the concentration of 100 mg/ml and then diluting the solution with distilled water so that the concentration became 10 mg/ml. The resulting aqueous solution was diluted with phosphate buffer solution to obtain a sample solution at a desired concentration. After incubation, the cell numbers in each well were counted and inhibitory activity on cell growth (ICso) was calculated.

mouse bone marrow cells = assay: Inhibition of the colony formation of mouse bone marrow cells; assay type: cell-based; conditions: for Number of colonies Average: 1.0 μg/ml (control average 75.3); for Number of colonies 1: count 1 (control 95); for activity at 1 µg/mL: Mus musculus, Bone marrow cell; for Number of colonies 2: count 2 (control 66)
[7] = 1.0 μg/ml, relative to control = 100
[8] = ATCC6633, Bacillus subtilis ATCC 6633, read-out: minimum inhibitory concentrations (MICs)
[9] = ATCC12228, Staphylococcus epidermidis ATCC 12228, read-out: minimum inhibitory concentrations (MICs)

Compound	minimum inhibitory concentrations (MICs) (ML-resistant strain; 1st listed (Table 1 r5)) [µg/mL]	minimum inhibitory concentrations (MICs) (ML-resistant strain; 2nd listed (Table 1 r6)) [µg/mL]	minimum inhibitory concentrations (MICs) (ML-resistant strain; 3rd listed (Table 1 r7)) [µg/mL]	minimum inhibitory concentrations (MICs) (ML-resistant strain; 4th listed (Table 1 r8)) [µg/mL]	minimum inhibitory concentrations (MICs) (ML-resistant strain; 5th listed (Table 1 r9)) [µg/mL]	minimum inhibitory concentrations (MICs) ([1]; Bacillus subtilis ATCC 6633) [µg/mL]	minimum inhibitory concentrations (MICs) (Escherichia coli K12) [µg/mL]	minimum inhibitory concentrations (MICs) ([2]; Staphylococcus aureus 209P) [µg/mL]	minimum inhibitory concentrations (MICs) ([3]; Staphylococcus aureus Smith) [µg/mL]	minimum inhibitory concentrations (MICs) [4] [µg/mL]	Inhibitory activity on cell growth (%) ([6]; 1 μg/ml, 48 hours)	Inhibitory activity on cell growth (%) ([6]; 3 μg/ml, 48 hours)	Inhibitory activity on cell growth (%) ([6]; 10 μg/ml, 48 hours)	Number of colonies Average (mouse bone marrow cells)	Number of colonies 1 (mouse bone marrow cells; 1.0 μg/ml)	MIC (ML-resistant strain; 1st listed (Table 1 r5)) [µg/mL]	MIC (ML-resistant strain; 2nd listed (Table 1 r6)) [µg/mL]	MIC (ML-resistant strain; 3rd listed (Table 1 r7)) [µg/mL]	MIC (ML-resistant strain; 4th listed (Table 1 r8)) [µg/mL]	MIC (Escherichia coli K12) [µg/mL]	also measured
4"-O-[p-methoxyphenylacetyl]tylosin [XV]	6.25	0.78	3.13	0.39	1.56	0.39	> 100	0.20	1.56	0.78	12.22	31.18	82.87	13.0	13	–	–	–	–	–	Remaining unhydrolyzed substance (%) [5]: 92.8%; Inhibitory activity on cell growth (%) ([6]; 30 μg/ml, 48 hours): 90.45%; Inhibitory activity on cell growth (%) ([6]; 100 μg/ml, 48 hours): 93.68%; IC50 ([6]; 48 hours): 5.01 µg/mL; Colony formation (%) (mouse bone marrow cells; [7]): 17.3%
CCCC(=O)O[C@H]1[C@H](C)O[C@@H](O[C@H]2[C@H](N(C)C)[C@@H](O)[C@H](O[C@H]3[C@@H](CC=O)C[C@@H](C)[C@@H](O)/C=C/C=C/C[C@@H](C)OC(=O)C[C@@H](O)[C@@H]3OC)O[C@@H]2C)C[C@@]1(C)OC(=O)CC [RKM, rokitamycin]	–	–	–	–	–	–	–	–	–	–	–	–	–	19.0	–	> 100	> 100	> 100	< 0.2	100 (≈ 121 µM)	MIC (ML-resistant strain; 5th listed (Table 1 r9)): > 100 µg/mL; MIC [1, 8]: 0.1 µg/mL (≈ 0.121 µM); MIC ([2]; Staphylococcus aureus 209P): 0.2 µg/mL (≈ 0.242 µM); MIC ([3]; Staphylococcus aureus Smith): 0.39 µg/mL (≈ 0.471 µM); MIC [4, 9]: < 0.2 µg/mL; Number of colonies 3 (mouse bone marrow cells; 1.0 μg/ml, count 3 (control 65)): 19; activity at 1 µg/mL (mouse bone marrow cells; [7]): 25.2%
CCC1OC(=O)CC(O)C(C)C(OC2OC(C)C(OC3CC(C)(O)C(OC(=O)C(O)c4ccc(OC)cc4)C(C)O3)C(N(C)C)C2O)C(CC=O)CC(C)C(=O)C=CC(C)=CC1COC1OC(C)C(O)C(OC)C1OC [Compound A, 4"-O-[(S)-(+)-p-methoxymandeloyl]tylosin]	–	–	–	–	6.25 (≈ 5.79 µM)	–	–	–	–	–	–	–	5.62	31.0	32	6.25 (≈ 5.79 µM)	0.39 (≈ 0.361 µM)	6.25 (≈ 5.79 µM)	< 0.2	> 100	MIC [1, 8]: 0.39 µg/mL (≈ 0.361 µM); MIC ([2]; Staphylococcus aureus 209P): 0.39 µg/mL (≈ 0.361 µM); MIC ([3]; Staphylococcus aureus Smith): 1.56 µg/mL (≈ 1.44 µM); MIC [4, 9]: 0.39 µg/mL (≈ 0.361 µM); remaining at 1 h ([5]; mouse, liver homogenate, pH 7.2, after being treated with liver homogenate for 60 minutes at 37 C, read-out: Remaining unhydrolyzed substance (%)): 97.8%; inhibition at 1 µg/mL ([6]; Mus musculus, L1210, 48 h, 1 μg/ml, read-out: Inhibitory activity on cell growth (%)): 0%; inhibition at 3 µg/mL ([6]; Mus musculus, L1210, 48 h, 3 μg/ml, read-out: Inhibitory activity on cell growth (%)): 0%; inhibition at 30 µg/mL ([6]; Mus musculus, L1210, 48 h, 30 μg/ml, read-out: Inhibitory activity on cell growth (%)): 47.8%; inhibition at 100 µg/mL ([6]; Mus musculus, L1210, 48 h, 100 μg/ml, read-out: Inhibitory activity on cell growth (%)): 88.8%; IC50 ([6]; Mus musculus, L1210, 48 h, read-out: IC50): 36.6 µg/mL (≈ 33.9 µM); Number of colonies 2 (mouse bone marrow cells; 1.0 μg/ml): 30; activity at 1 µg/mL (mouse bone marrow cells; [7]): 41.2%
CC[C@H]1OC(=O)[C@H](C)[C@@H](O[C@H]2C[C@@](C)(OC)[C@@H](O)[C@H](C)O2)[C@H](C)[C@@H](O[C@@H]2O[C@H](C)C[C@H](N(C)C)[C@H]2O)[C@](C)(O)C[C@@H](C)C(=O)[C@H](C)[C@@H](O)[C@]1(C)O [EM, erythromycin]	–	–	–	–	–	–	–	–	–	–	–	–	–	–	–	> 100	> 100	> 100	> 100	50 (≈ 68.1 µM)	MIC (ML-resistant strain; 5th listed (Table 1 r9)): > 100 µg/mL; MIC ([1]; Bacillus subtilis, ATCC6633, read-out: minimum inhibitory concentrations (MICs)): 0.1 µg/mL (≈ 0.136 µM); MIC ([2]; Staphylococcus aureus, 209P): 0.1 µg/mL (≈ 0.136 µM); MIC ([3]; Staphylococcus aureus): 0.2 µg/mL (≈ 0.273 µM); MIC ([4]; ATCC12228, read-out: minimum inhibitory concentrations (MICs)): < 0.2 µg/mL
CCC1OC(=O)CC(O)C(C)C(OC2OC(C)C(OC3CC(C)(O)C(OC(=O)C(O)c4ccc(OC)cc4)C(C)O3)C(N(C)C)C2O)C(CC=O)CC(C)C(=O)C=CC(C)=CC1COC1OC(C)C(O)C(OC)C1OC [Compound B, 4"-O-[(R)-(-)-p-methoxymandeloyl]tylosin]	6.25 (≈ 5.79 µM)	0.39 (≈ 0.361 µM)	3.13 (≈ 2.9 µM)	< 0.20	1.56 (≈ 1.44 µM)	0.39 (≈ 0.361 µM)	> 100	0.39 (≈ 0.361 µM)	1.56 (≈ 1.44 µM)	0.78 (≈ 0.722 µM)	0	0	13.48	29.5	34	–	–	–	–	–	Remaining unhydrolyzed substance (%) ([5]; 60 min): 100%; Inhibitory activity on cell growth (%) ([6]; 30 μg/ml, 48 hours): 41.43%; Inhibitory activity on cell growth (%) ([6]; 100 μg/ml, 48 hours): 87.22%; IC50 ([6]; 48 hours): 32.99 µg/mL (≈ 30.5 µM); Number of colonies 2 (mouse bone marrow cells; 1.0 μg/ml): 25
